According to ChEMBL document CHEMBL1146270, “Identification of potent and selective TACE inhibitors via the S1 pocket” (Bioorg Med Chem Lett, 2007):

How the values were obtained:
[1] = biological target: T1, Disintegrin and metalloproteinase domain-containing protein 17 (Homo sapiens, UniProt P78536); assay: Inhibition of TACE
[2] = biological target: 72 kDa type IV collagenase (Homo sapiens, UniProt P08253); assay: Inhibition of MMP2
Collagenase 3 = Collagenase 3 (Homo sapiens, UniProt P45452)
Interstitial collagenase = biological target: T2, Interstitial collagenase (Homo sapiens, UniProt P03956); assay: Inhibition of MMP1
T2 sequence (P03956 whole entry): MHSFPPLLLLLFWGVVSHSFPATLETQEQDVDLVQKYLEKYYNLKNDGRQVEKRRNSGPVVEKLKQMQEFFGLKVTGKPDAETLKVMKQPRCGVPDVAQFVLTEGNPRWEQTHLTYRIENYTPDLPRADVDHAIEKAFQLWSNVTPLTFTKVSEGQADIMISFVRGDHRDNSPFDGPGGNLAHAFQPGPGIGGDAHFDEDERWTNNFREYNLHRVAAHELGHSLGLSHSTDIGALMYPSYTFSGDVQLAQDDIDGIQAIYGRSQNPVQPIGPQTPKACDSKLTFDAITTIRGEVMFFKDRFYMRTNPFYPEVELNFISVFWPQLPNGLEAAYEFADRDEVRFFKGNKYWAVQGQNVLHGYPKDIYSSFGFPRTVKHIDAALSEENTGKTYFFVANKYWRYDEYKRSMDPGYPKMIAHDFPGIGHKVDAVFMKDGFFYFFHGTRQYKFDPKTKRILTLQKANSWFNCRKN

Stromelysin-1 = Stromelysin-1 (Homo sapiens, UniProt P08254); assay: Inhibition of MMP3
Sequence of Stromelysin-1 (P08254 whole entry): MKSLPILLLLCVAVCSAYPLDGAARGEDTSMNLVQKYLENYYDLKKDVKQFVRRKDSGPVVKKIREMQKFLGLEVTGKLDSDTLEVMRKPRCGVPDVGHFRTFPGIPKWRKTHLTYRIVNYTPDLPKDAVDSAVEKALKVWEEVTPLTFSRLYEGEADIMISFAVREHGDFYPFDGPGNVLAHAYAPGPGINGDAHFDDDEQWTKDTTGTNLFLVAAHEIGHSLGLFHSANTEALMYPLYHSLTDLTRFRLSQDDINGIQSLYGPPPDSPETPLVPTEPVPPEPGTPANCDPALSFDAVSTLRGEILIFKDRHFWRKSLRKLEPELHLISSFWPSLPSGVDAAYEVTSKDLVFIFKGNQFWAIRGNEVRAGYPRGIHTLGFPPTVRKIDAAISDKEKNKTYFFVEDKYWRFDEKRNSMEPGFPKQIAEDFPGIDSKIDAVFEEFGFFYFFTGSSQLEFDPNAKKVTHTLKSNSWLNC

[3] = biological target: Matrix metalloproteinase-9 (Homo sapiens, UniProt P14780); assay: Inhibition of MMP9
Sequence of Matrix metalloproteinase-9 (P14780 whole entry): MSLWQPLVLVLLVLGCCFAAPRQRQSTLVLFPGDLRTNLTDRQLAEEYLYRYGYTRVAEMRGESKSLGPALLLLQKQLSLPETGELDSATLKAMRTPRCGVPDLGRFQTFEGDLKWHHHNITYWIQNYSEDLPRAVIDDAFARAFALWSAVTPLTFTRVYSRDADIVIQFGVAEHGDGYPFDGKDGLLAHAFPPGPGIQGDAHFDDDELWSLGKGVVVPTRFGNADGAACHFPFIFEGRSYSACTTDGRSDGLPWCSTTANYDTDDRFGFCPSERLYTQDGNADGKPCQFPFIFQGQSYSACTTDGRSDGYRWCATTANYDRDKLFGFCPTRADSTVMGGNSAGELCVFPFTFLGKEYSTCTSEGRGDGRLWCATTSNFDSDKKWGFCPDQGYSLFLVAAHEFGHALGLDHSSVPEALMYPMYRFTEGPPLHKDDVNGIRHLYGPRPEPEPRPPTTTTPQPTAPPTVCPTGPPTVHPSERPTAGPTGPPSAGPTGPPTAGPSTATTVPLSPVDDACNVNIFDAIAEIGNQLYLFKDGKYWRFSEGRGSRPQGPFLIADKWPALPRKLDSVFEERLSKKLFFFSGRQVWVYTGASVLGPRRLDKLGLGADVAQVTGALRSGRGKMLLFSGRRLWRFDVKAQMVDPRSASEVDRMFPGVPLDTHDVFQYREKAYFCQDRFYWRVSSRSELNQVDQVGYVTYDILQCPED

[4] = biological target: Matrix metalloproteinase-14 (Homo sapiens, UniProt P50281); assay: Inhibition of MMP14
[5] = biological target: T1, Disintegrin and metalloproteinase domain-containing protein 17
Description: Inhibition of TACE in human whole blood assay

T1 sequence (P78536 whole entry, the tested form may be a part): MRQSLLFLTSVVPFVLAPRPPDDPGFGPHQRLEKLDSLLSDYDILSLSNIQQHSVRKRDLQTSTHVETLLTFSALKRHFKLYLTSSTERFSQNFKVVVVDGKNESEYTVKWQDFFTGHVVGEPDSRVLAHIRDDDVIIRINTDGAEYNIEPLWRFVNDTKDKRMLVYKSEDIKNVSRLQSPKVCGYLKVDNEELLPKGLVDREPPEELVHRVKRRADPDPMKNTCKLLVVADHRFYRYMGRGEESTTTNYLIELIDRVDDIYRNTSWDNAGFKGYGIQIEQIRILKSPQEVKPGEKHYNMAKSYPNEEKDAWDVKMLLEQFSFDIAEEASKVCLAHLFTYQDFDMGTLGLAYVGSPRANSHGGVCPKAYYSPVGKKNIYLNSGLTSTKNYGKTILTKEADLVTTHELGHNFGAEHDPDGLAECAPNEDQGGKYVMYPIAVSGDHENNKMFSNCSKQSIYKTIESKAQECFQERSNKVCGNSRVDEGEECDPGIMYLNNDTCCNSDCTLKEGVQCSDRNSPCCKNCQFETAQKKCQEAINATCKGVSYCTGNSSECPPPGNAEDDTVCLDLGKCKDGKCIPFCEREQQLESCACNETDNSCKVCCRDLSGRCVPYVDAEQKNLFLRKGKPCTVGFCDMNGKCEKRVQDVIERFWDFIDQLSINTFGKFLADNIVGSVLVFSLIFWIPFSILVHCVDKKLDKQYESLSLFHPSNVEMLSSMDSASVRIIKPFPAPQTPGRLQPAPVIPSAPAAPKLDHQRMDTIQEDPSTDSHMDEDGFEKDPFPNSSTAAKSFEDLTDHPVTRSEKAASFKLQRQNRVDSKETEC
Sequence of 72 kDa type IV collagenase (P08253 whole entry): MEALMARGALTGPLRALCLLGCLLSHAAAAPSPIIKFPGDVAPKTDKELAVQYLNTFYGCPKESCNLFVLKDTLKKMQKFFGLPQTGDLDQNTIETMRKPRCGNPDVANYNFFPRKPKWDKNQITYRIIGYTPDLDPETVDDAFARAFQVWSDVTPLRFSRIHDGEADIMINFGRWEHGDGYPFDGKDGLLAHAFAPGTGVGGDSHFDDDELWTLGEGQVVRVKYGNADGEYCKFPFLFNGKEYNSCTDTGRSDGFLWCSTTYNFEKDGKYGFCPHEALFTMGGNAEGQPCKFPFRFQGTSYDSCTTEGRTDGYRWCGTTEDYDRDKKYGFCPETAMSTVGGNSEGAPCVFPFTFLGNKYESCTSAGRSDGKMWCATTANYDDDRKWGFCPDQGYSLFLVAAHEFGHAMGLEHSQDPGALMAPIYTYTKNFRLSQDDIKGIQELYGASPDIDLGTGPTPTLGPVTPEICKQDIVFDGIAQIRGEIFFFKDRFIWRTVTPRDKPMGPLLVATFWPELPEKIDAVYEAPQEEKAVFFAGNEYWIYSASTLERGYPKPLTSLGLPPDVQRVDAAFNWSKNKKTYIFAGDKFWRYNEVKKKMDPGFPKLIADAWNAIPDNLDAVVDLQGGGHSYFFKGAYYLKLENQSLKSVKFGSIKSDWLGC

| IC50 (Interstitial collagenase) | IC50 (Stromelysin-1) | IC50 [3] | IC50 [4] | SMILES | IC50 [1] | IC50 [2] | IC50 (Collagenase 3) | IC50 [5] |
| --- | --- | --- | --- | --- | --- | --- | --- | --- |
|  |  |  |  | CC#CCOc1ccc(S(=O)(=O)CC2(C(=O)NO)CCN(S(=O)(=O)c3c(C)nn(C)c3C)CC2)cc1 | < 1 nM | 99.5 nM | 385 nM |  |
|  |  |  |  | CC#CCOc1ccc(S(=O)(=O)CC2(C(=O)NO)CCN(S(=O)(=O)C3CC3)CC2)cc1 | 1.6 nM | 161 nM | 1160 nM |  |
| 30000 nM | 141 nM | 10300 nM |  | Cc1cc(COc2ccc([C@]3(C)CCN([C@H](C)C(=O)NO)C3=O)cc2)c2ccccc2n1 |  | 2050 nM | 1420 nM |  |
|  |  |  | 24000 nM | CC#CCOc1ccc(S(=O)(=O)CC2(C(=O)NO)CCN(S(=O)(=O)c3c(C)noc3C)CC2)cc1 |  | 664 nM | 2280 nM |  |
|  |  |  |  | CC#CCOc1ccc(S(=O)(=O)CC2(C(=O)NO)CCN(S(=O)(=O)N3CCCCC3)CC2)cc1 | 1.2 nM | 51 nM | 144 nM |  |
|  |  |  |  | CC#CCOc1ccc(S(=O)(=O)CC2(C(=O)NO)CCN(S(=O)(=O)Cc3ccncc3)CC2)cc1 | 2 nM | 82 nM | 295 nM |  |
|  |  |  |  | CC#CCOc1ccc(S(=O)(=O)CC2(C(=O)NO)CCN(S(=O)(=O)C(C)(C)C)CC2)cc1 | < 1 nM | 73 nM | 238 nM |  |
|  |  |  |  | CC#CCOc1ccc(S(=O)(=O)CC2(C(=O)NO)CCN(S(=O)(=O)C3CCCC3)CC2)cc1 | 1.3 nM | 54 nM | 155 nM |  |
|  | 1500 nM | 90000 nM |  | Cc1cc(COc2ccc(S(=O)(=O)CC(CC3CCN(C(C)(C)C)CC3)N(O)C=O)cc2)c2ccccc2n1 (stereo unspecified) | 12 nM | 5000 nM | 4000 nM |  |
|  |  |  |  | CC#CCOc1ccc(S(=O)(=O)CC2(C(=O)NO)CCN(c3ccncc3)CC2)cc1 | 5.6 nM | 2060 nM | 2040 nM |  |
| 201 nM |  |  |  | CC#CCOc1ccc(S(=O)(=O)N2CCSC(C)(C)C2C(=O)NO)cc1 (stereo unspecified) | 9 nM |  |  |  |
|  |  |  |  | CC#CCOc1ccc(S(=O)(=O)CC2(C(=O)NO)CCN(c3ccccn3)CC2)cc1 | 1.33 nM | 62.6 nM | 205 nM |  |
|  |  |  |  | CC#CCOc1ccc(S(=O)(=O)CC2(C(=O)NO)CCN(S(=O)(=O)N3CCC[C@H]3COC)CC2)cc1 | 1.5 nM | 58 nM | 190 nM |  |
|  |  |  |  | CC#CCOc1ccc(S(=O)(=O)CC2(C(=O)NO)CCN(S(=O)(=O)N3CCOCC3)CC2)cc1 | 1 nM | 51 nM | 195 nM |  |
|  |  |  |  | CC#CCOc1ccc(S(=O)(=O)CC2(C(=O)NO)CCN(c3nc4ccccc4o3)CC2)cc1 | 1.1 nM | 40 nM | 56 nM |  |
|  |  |  |  | CC#CCOc1ccc(S(=O)(=O)CC2(C(=O)NO)CCN(S(=O)(=O)c3ccc(Cl)s3)CC2)cc1 | 7 nM | 33 nM |  |  |

| IC50 (Interstitial collagenase) | IC50 (Stromelysin-1) | IC50 [3] | IC50 [4] | SMILES | IC50 [1] | IC50 [2] | IC50 (Collagenase 3) | IC50 [5] |
| --- | --- | --- | --- | --- | --- | --- | --- | --- |
|  |  |  |  | CC#CCOc1ccc(S(=O)(=O)CC2(C(=O)NO)CCN(c3nc4ccccc4n3C)CC2)cc1 | < 1 nM | 176 nM | 166 nM |  |
|  |  |  |  | CC#CCOc1ccc(S(=O)(=O)CC2(C(=O)NO)CCN(S(=O)(=O)c3cn(C)c(C)n3)CC2)cc1 | 3 nM | 19 nM | 147 nM |  |
|  |  |  |  | CC#CCOc1ccc(S(=O)(=O)CC2(C(=O)NO)CCN(S(=O)(=O)N3CCCC3)CC2)cc1 | 1 nM | 31 nM | 117 nM |  |
|  |  |  |  | CC#CCOc1ccc(S(=O)(=O)CC2(C(=O)NO)CCN(S(=O)(=O)N(C)C)CC2)cc1 | 1.8 nM | 61.3 nM | 229 nM |  |
|  |  |  | 583 nM | CC#CCOc1ccc(S(=O)(=O)CC2(C(=O)NO)CCN(C(=O)c3ccncc3)CC2)cc1 | 2.6 nM |  | 21.5 nM |  |
|  |  |  |  | CC#CCOc1ccc(S(=O)(=O)CC2(C(=O)NO)CCN(C(=O)c3c(Cl)cncc3Cl)CC2)cc1 | 1.7 nM | 183 nM | 449 nM | 1300 nM |
| 2680 nM |  | 920 nM | 14800 nM | CC#CCOc1ccc(S(=O)(=O)CC2(C(=O)NO)CCN(Cc3c(Cl)cncc3Cl)CC2)cc1 |  | 555 nM | 259 nM |  |
|  |  |  |  | CC#CCOc1ccc(S(=O)(=O)CC2(C(=O)NO)CCN(S(=O)(=O)C(CC)CC)CC2)cc1 | 1.2 nM | 58 nM | 136 nM |  |
|  |  |  |  | CC#CCOc1ccc(S(=O)(=O)CC2(C(=O)NO)CCN(S(=O)(=O)c3cc(Cl)sc3Cl)CC2)cc1 | < 1 nM | 22 nM | 23 nM |  |
|  |  |  |  | CC#CCOc1ccc(S(=O)(=O)CC2(C(=O)NO)CCN(S(=O)(=O)c3nc(C)sc3C)CC2)cc1 | < 1 nM | 32 nM | 38 nM |  |
|  |  |  |  | CC#CCOc1ccc(S(=O)(=O)CC2(C(=O)NO)CCN(S(=O)(=O)CC3CCCCC3)CC2)cc1 | < 1 nM | 11 nM | 72 nM |  |
|  |  |  |  | CC#CCOc1ccc(S(=O)(=O)CC2(C(=O)NO)CCN(S(=O)(=O)C(C)CN3CCOCC3)CC2)cc1 (stereo unspecified) | 1.4 nM | 37 nM | 130 nM |  |
|  |  |  |  | CC#CCOc1ccc(S(=O)(=O)CC2(C(=O)NO)CCN(S(=O)(=O)N3CCC[C@@H]3CO)CC2)cc1 | 1.4 nM | 172 nM | 354 nM |  |
|  |  |  |  | CC#CCOc1ccc(S(=O)(=O)CC2(C(=O)NO)CCN(S(=O)(=O)N3CCN(C(C)=O)CC3)CC2)cc1 | 1.5 nM | 20 nM | 104 nM |  |
|  |  |  |  | CC#CCOc1ccc(S(=O)(=O)CC2(C(=O)NO)CCN(S(=O)(=O)C3CCCCC3)CC2)cc1 | 2.8 nM | 4 nM | 24.4 nM |  |
|  |  |  |  | CC#CCOc1ccc(S(=O)(=O)CC2(C(=O)NO)CCN(S(=O)(=O)CCN3CCOCC3)CC2)cc1 | 2.2 nM | 37 nM | 43 nM |  |
